Experimental data as given in patent publication US11925724B2, “Compounds with dual activity” (priority 2015, dated 2024).
Square brackets hold non-standard residues; d marks the D form. Ends that are not written are not given here. Peptide text beside a SMILES is read from it. Phe(4-F) = N[CH](Cc1ccc(F)cc1)C(=O)O; Dopa = N[CH](Cc1ccc(O)c(O)c1)C(=O)O

Key:
Escherichia Coli = experiment: Adherence of Escherichia Coli to bare and peptide coated substrates (live bacteria count after biofilm formation); assay type: cell-based; settings: peptide-coated Ti, overnight incubation in bacteria medium, CFU plate counts
Protocol: To assess the bacterial attachment to the surfaces and the anti-fouling activity of the peptides, the adherence of Escherichia Coli to bare and peptide coated substrates was promoted. Following this, the surfaces incubated overnight in the bacteria medium to enable the biofilm formation. After the incubation, the surfaces were slowly rinsed, swabbed the adhered bacteria and seeded them in order to evaluate the number of live bacteria on the substrates. […] Escherichia coli were grown in LB medium for 5.5 hours at 37° C. in loosely capped erlenmeyer flask with agitation (120 rpm). […] Afterward, LB media (2 mL) were added to each well and the plates were incubated at 37° C. overnight. Each surface was rinsed by shaking the surface in sterilized water three times. A sterile swab was then used to pick up the biofilms attached to the surfaces. The swabs were inserted into eppendorf tubes containing 1 mL of sterilized water and vortexed for 1 min. Each sample was decimally diluted and plated out on dried LB agar (10 g LB and 7.5 g agar per 0.5 L TDW) plate (8 drops of 10 ul for each dilution). Plate counts (CFU mL-1) were carried out after incubation over night at 37° C. The data presents 3 experiments with triplicates for each experiment. The data is given as mean values ±standard deviations. Significant differences between group means were analyzed by t-test and confidence levels were set at 95%.

[1] = Peptide layer thickness on Ti by XPS; assay type: physicochemical; settings: peptide-coated Ti substrate
Description: Using X-ray Photoelectron Spectrometry (XPS) analysis, the presence of fluorine atoms on the surface and the thickness of the peptide layer were characterized. As expected, in the case of a bare titanium, there was no indication of the presence of fluorine, while in all cases of substrate-coated with peptides, the presence of fluorine signal indicated the deposition of the peptides on the surface (FIG. 3).

| Compound | reduction of live bacteria on substrate as compared to a bare Ti surface (Escherichia Coli) | thickness of the peptide layer (XPS) [1] |
| --- | --- | --- |
| N=C(N)NCCCC(NC(=O)C(Cc1ccc(F)cc1)NC(=O)C(CC(=O)O)NC(=O)C(N)Cc1ccc(O)c(O)c1)C(=O)NC(Cc1ccc(F)cc1)C(=O)NCC(N)=O (stereo not drawn) [Peptide 3] (H-[Dopa]D[Phe(4-F)]R[Phe(4-F)]G-NH2; configuration not given here) | up to 72% |  |
| N=C(N)NCCCC(NC(=O)C(Cc1ccc(F)cc1)NC(=O)C(Cc1ccc(F)cc1)NC(=O)C(N)Cc1ccc(O)c(O)c1)C(=O)NCC(=O)NC(CC(=O)O)C(N)=O (stereo not drawn) [Peptide 1, DOPA-Phe(4F)-Phe(4F)-Arg-Gly-Asp] (H-[Dopa][Phe(4-F)][Phe(4-F)]RGD-NH2; configuration not given here) | up to 80% | 4.74 nm |
| Peptide 4: control peptide with the same amino acids in mixed sequence, without the cell adhesion and the anti-fouling elements ([Dopa][Phe(4-F)]DG[Phe(4-F)]R; not fully specified (C-terminus)) | ≤ 62% |  |
| N=C(N)NCCCC(NC(=O)C(Cc1ccc(O)c(O)c1)NC(=O)C(Cc1ccc(F)cc1)NC(=O)C(N)Cc1ccc(F)cc1)C(=O)NCC(=O)NC(CC(=O)O)C(N)=O (stereo not drawn) [Peptide 2] (H-[Phe(4-F)][Phe(4-F)][Dopa]RGD-NH2; configuration not given here) | ≤ 82% | 4.33 nm |
